The supplement of paper PMC11451515

Tested on: NOMO1
Experiment: cell viability relative to DMSO control; higher = less cytotoxic
Conditions: 48 h
Summary of the method: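 Viability values are per-plate percentages of DMSO wells, with background from cell-free wells. Library compounds in DMSO were pin-dosed, in an 11-point threefold series from 47 μM to 0.79 nM, onto NOMO1 or SEM (500 cells/well) or P12-Ichikawa (1000 cells/well) leukemia cells in 1536-well plates (5 μl). Those cells had been adapted for at least four passages in each medium, and CellTiter-Glo One luminescence was read after 48 h at 37°C.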

[1] = RPMI 5 mM glucose + 10% FBS, 0.000781 µM
[2] = RPMI 5 mM glucose + 10% FBS, 0.00234 µM
[3] = RPMI 5 mM glucose + 10% FBS, 0.00702 µM
[4] = RPMI 5 mM glucose + 10% FBS, 0.0211 µM
[5] = RPMI 5 mM glucose + 10% FBS, 0.0632 µM
[6] = RPMI 5 mM glucose + 10% FBS, 0.19 µM
[7] = RPMI 5 mM glucose + 10% FBS, 0.569 µM
[8] = RPMI 5 mM glucose + 10% FBS, 1.71 µM
[9] = RPMI 5 mM glucose + 10% FBS, 5.12 µM
[10] = RPMI 5 mM glucose + 10% FBS, 15.4 µM
[11] = RPMI 5 mM glucose + 10% FBS, 46.1 µM
[12] = HPLM + 10% dialyzed FBS, 0.000781 µM
[13] = HPLM + 10% dialyzed FBS, 0.00234 µM
[14] = HPLM + 10% dialyzed FBS, 0.00702 µM
[15] = HPLM + 10% dialyzed FBS, 0.0211 µM
[16] = HPLM + 10% dialyzed FBS, 0.0632 µM
[17] = HPLM + 10% dialyzed FBS, 0.19 µM
[18] = HPLM + 10% dialyzed FBS, 0.569 µM
[19] = HPLM + 10% dialyzed FBS, 1.71 µM
[20] = HPLM + 10% dialyzed FBS, 5.12 µM
[21] = HPLM + 10% dialyzed FBS, 15.4 µM
[22] = HPLM + 10% dialyzed FBS, 46.1 µM
[23] = RPMI 5 mM glucose + 10% dialyzed FBS, 0.000781 µM
[24] = RPMI 5 mM glucose + 10% dialyzed FBS, 0.00234 µM
[25] = RPMI 5 mM glucose + 10% dialyzed FBS, 0.00702 µM
[26] = RPMI 5 mM glucose + 10% dialyzed FBS, 0.0211 µM
[27] = RPMI 5 mM glucose + 10% dialyzed FBS, 0.0632 µM
[28] = RPMI 5 mM glucose + 10% dialyzed FBS, 0.19 µM
[29] = RPMI 5 mM glucose + 10% dialyzed FBS, 0.569 µM
[30] = RPMI 5 mM glucose + 10% dialyzed FBS, 1.71 µM
[31] = RPMI 5 mM glucose + 10% dialyzed FBS, 5.12 µM
[32] = RPMI 5 mM glucose + 10% dialyzed FBS, 15.4 µM
[33] = RPMI 5 mM glucose + 10% dialyzed FBS, 46.1 µM

SMILES	cell viability [1]	cell viability [2]	cell viability [3]	cell viability [4]	cell viability [5]	cell viability [6]	cell viability [7]	cell viability [8]	cell viability [9]	cell viability [10]	cell viability [11]	cell viability [12]	cell viability [13]	cell viability [14]	cell viability [15]	cell viability [16]	cell viability [17]	cell viability [18]	cell viability [19]	cell viability [20]	cell viability [21]	cell viability [22]	cell viability [23]	cell viability [24]	cell viability [25]	cell viability [26]	cell viability [27]	cell viability [28]	cell viability [29]	cell viability [30]	cell viability [31]	cell viability [32]	cell viability [33]
CC(C)(C)[C@H](NC(=O)c1ccc(N)c(Cl)c1)C(=O)N1CCC[C@H]1C(=O)N[C@H](C#N)CC(=O)O	113%	126%	112%	118%	120%	126%	116%	30%	23%	22.7%	20.6%																						
OCCn1cc(-c2cnc3nnn(Cc4ccc5ncccc5c4)c3n2)cn1	99.4%	110%	112%	99.9%	93.2%	116%	110%	107%	102%	105%	96.5%	106%	104%	123%	110%	102%	118%	92.2%	103%	92.1%	89.7%	63.2%	93.3%	105%	103%	112%	105%	91.7%	97.1%	103%	86.8%	80.6%	82.2%
C[C@]12CCC\3=C\4CCC(=O)\C=C4CC[C@H]3[C@@H]1CC[C@@]2(O)CC#N												123%	123%	138%	144%	143%	139%	138%	125%	158%	137%	168%											
CN(C)C1=C(Br)C=C(C=C1)C\2NC3=C(\C4=C2C(=O)CC(C)(C)C4)C5=CC=CC=C5C=C3 (stereo unspecified)	103%	124%	119%	113%	114%	103%	113%	98%	110%	103%	102%												75.9%	117%	158%	172%	182%	71.7%	52.3%	89.3%	143%	74.4%	94.8%
COC1=CC=C2CN(C)CC[C@@]34\C=C/[C@H](O)C[C@@H]3OC1=C24	128%	124%	120%	112%	124%	130%	118%	123%	126%	108%	104%												126%	121%	118%	119%	118%	129%	120%	115%	110%	108%	113%
COc1ncc(-c2ccc3c(Nc4cc(Oc5cc(F)cc(F)c5)cc(C(=O)O)c4)c([S+](=O)([O-])NC4CC4)cnc3c2)c(OC)n1	96.6%	102%	89.9%	95.6%	100%	84.1%	98.3%	92.3%	81.9%	87.7%	85.3%	112%	111%	91.1%	106%	113%	98%	95.7%	99.3%	86.5%	77.7%	87.2%	97.2%	94.4%	94%	89%	92%	102%	89.7%	86.9%	81.1%	79.7%	75.6%
C[C@H]1O[C@H](C[C@H](O)[C@@H]1O)O[C@H]2[C@@H](O)C[C@@H](O[C@@H]2C)O[C@H]3[C@@H](O)C[C@@H](O[C@@H]3C)O[C@H]4CC[C@@]5(C)[C@H](CC[C@@H]6[C@@H]5C[C@@H](O)[C@]7(C)[C@H](CC[C@]67O)C/8=C/C(=O)OC8)C4	113%	112%	120%	107%	107%	95.8%	21.9%	9.57%	11%	12.1%	9.59%	120%	119%	136%	138%	97.2%	25.3%	12.2%	8.48%	8.1%	7.39%	5.28%	120%	121%	109%	115%	114%	57.2%	13.5%	7.93%	7.1%	7.81%	7.62%
CN1CCN(C(=O)O[C@H]2c3nccnc3C(=O)N2c2ccc(Cl)cn2)CC1	94.8%	99.2%	92.4%	106%	103%	99.4%	99.4%	97.9%	99.3%	93.8%	84.6%	115%	102%	119%	114%	114%	112%	114%	101%	91.1%	98.4%	88.1%	97.6%	107%	103%	94.2%	99.1%	97%	105%	97.2%	97%	88.5%	78.5%
NC/1=N/C(=O)N(/C=N1)[C@@H]2O[C@H](CO)[C@@H](O)[C@H]2O	100%	109%	91.5%	93.6%	99.9%	106%	96.9%	90.6%	81.3%	52.7%	20.7%	108%	108%	111%	101%	106%	115%	108%	100%	94.8%	65.8%	21.2%	110%	112%	106%	110%	116%	111%	109%	91.6%	72.6%	32.6%	14.6%
